Experimental findings from PubChem BioAssay AID1259407 (Chemical Carcinogenesis Research Information System (CCRIS), 2018) are described below.

The data set deals with CCRIS mutagenicity, Ames/micronucleus/aberration tests. As to the kind of experiment: CCRIS mutagenicity studies.
[1] abbreviates: Test System: AMES SALMONELLA TYPHIMURIUM, Strain/Indicator: TA98, Metabolic Activation: NONE, Method: STANDARD PLATE.
Where [2] appears, read: Test System: AMES SALMONELLA TYPHIMURIUM, Strain/Indicator: TA100, Metabolic Activation: NONE, Method: STANDARD PLATE.
The mark [3] stands for this setting: Test System: AMES SALMONELLA TYPHIMURIUM, Strain/Indicator: TA1535, Metabolic Activation: NONE, Method: STANDARD PLATE.
Where [4] appears, read: Test System: AMES SALMONELLA TYPHIMURIUM, Strain/Indicator: TA1537, Metabolic Activation: NONE, Method: STANDARD PLATE.
The mark [5] stands for this setting: Test System: AMES SALMONELLA TYPHIMURIUM, Strain/Indicator: TA100, Metabolic Activation: NONE, Method: PREINCUBATION

Structures are written as SMILES. Activity calls are given as the source filed them. The rule behind the calls is not given here.

As for `Oc1cc(Cl)c(Cl)cc1Cl`, the mutagenic call by setting is: (Test System: AMES SALMONELLA TYPHIMURIUM, Strain/Indicator: TA97, Metabolic Activation: NONE, Method: STANDARD PLATE) “active; positive”; (Test System: AMES SALMONELLA TYPHIMURIUM, Strain/Indicator: TA97, Metabolic Activation: RAT, LIVER, S-9, AROCLOR 1254, Method: STANDARD PLATE) “active; positive”; (Test System: AMES SALMONELLA TYPHIMURIUM, Strain/Indicator: TA98, Metabolic Activation: NONE) “inactive; negative”; under setting [1], “active; positive”; (Test System: AMES SALMONELLA TYPHIMURIUM, Strain/Indicator: TA98, Metabolic Activation: RAT, LIVER, S-9, AROCLOR 1254) “inactive; negative”; (Test System: AMES SALMONELLA TYPHIMURIUM, Strain/Indicator: TA98, Metabolic Activation: RAT, LIVER, S-9, AROCLOR 1254, Method: STANDARD PLATE) “active; positive”. In addition, the mutagenic call is “inactive; negative” (Test System: AMES SALMONELLA TYPHIMURIUM, Strain/Indicator: TA100, Metabolic Activation: NONE); “active; positive” under setting [2]; “inactive; negative” (Test System: AMES SALMONELLA TYPHIMURIUM, Strain/Indicator: TA100, Metabolic Activation: RAT, LIVER, S-9, AROCLOR 1254); “inactive; negative” (Test System: AMES SALMONELLA TYPHIMURIUM, Strain/Indicator: TA100, Metabolic Activation: RAT, LIVER, S-9, AROCLOR 1254, Method: STANDARD PLATE); “inactive; negative” (Test System: AMES SALMONELLA TYPHIMURIUM, Strain/Indicator: TA102, Metabolic Activation: NONE); “inactive; negative” (Test System: AMES SALMONELLA TYPHIMURIUM, Strain/Indicator: TA102, Metabolic Activation: RAT, LIVER, S-9, AROCLOR 1254). Further, the mutagenic call runs as follows: (Test System: AMES SALMONELLA TYPHIMURIUM, Strain/Indicator: TA104, Metabolic Activation: NONE) “inactive; negative”; (Test System: AMES SALMONELLA TYPHIMURIUM, Strain/Indicator: TA104, Metabolic Activation: NONE, Method: STANDARD PLATE) “inactive; negative”; (Test System: AMES SALMONELLA TYPHIMURIUM, Strain/Indicator: TA104, Metabolic Activation: RAT, LIVER, S-9, AROCLOR 1254) “inactive; negative”; (Test System: AMES SALMONELLA TYPHIMURIUM, Strain/Indicator: TA104, Metabolic Activation: RAT, LIVER, S-9, AROCLOR 1254, Method: STANDARD PLATE) “inactive; negative”; (Test System: CHINESE HAMSTER V-79, Strain/Indicator: V-79/6-THIOGUANINE, Metabolic Activation: NONE, Method: STANDARD PLATE) “inactive; negative”.

As for `CN1C(=O)CC(=O)N(c2ccccc2)c2cc(Cl)ccc21`, the mutagenic call runs as follows: under setting [1], “inactive; negative”; (Test System: AMES SALMONELLA TYPHIMURIUM, Strain/Indicator: TA98, Metabolic Activation: RAT, LIVER, S-9, PHENOBARBITAL AND 5,6-BENZOFLAVONE, Method: STANDARD PLATE) “inactive; negative”; under setting [2], “inactive; negative”; (Test System: AMES SALMONELLA TYPHIMURIUM, Strain/Indicator: TA100, Metabolic Activation: RAT, LIVER, S-9, PHENOBARBITAL AND 5,6-BENZOFLAVONE, Method: STANDARD PLATE) “inactive; negative”; under setting [3], “inactive; negative”; (Test System: AMES SALMONELLA TYPHIMURIUM, Strain/Indicator: TA1535, Metabolic Activation: RAT, LIVER, S-9, PHENOBARBITAL AND 5,6-BENZOFLAVONE, Method: STANDARD PLATE) “inactive; negative”. The mutagenic call under setting [4] is “inactive; negative”; the mutagenic call (Test System: AMES SALMONELLA TYPHIMURIUM, Strain/Indicator: TA1537, Metabolic Activation: RAT, LIVER, S-9, PHENOBARBITAL AND 5,6-BENZOFLAVONE, Method: STANDARD PLATE) was “inactive; negative”; the mutagenic call (Test System: E. COLI, Strain/Indicator: WP2 UVRA, Metabolic Activation: NONE, Method: STANDARD PLATE) was “inactive; negative”.

Turning to `O=C(OCC1CO1)C1CCCCC1C(=O)OCC1CO1` (stereo not given), the mutagenic call runs as follows: (Test System: AMES SALMONELLA TYPHIMURIUM, Strain/Indicator: TA100, Metabolic Activation: HAMSTER, LIVER, S-9, AROCLOR 1254 (30%), Method: PREINCUBATION) “active; positive”; under setting [5], “active; positive”; (Test System: AMES SALMONELLA TYPHIMURIUM, Strain/Indicator: TA100, Metabolic Activation: RAT, LIVER, S-9, AROCLOR 1254 (30%), Method: PREINCUBATION) “active; positive”; (Test System: AMES SALMONELLA TYPHIMURIUM, Strain/Indicator: TA1535, Metabolic Activation: HAMSTER, LIVER, S-9, AROCLOR 1254 (30%), Method: PREINCUBATION) “active; positive”; (Test System: AMES SALMONELLA TYPHIMURIUM, Strain/Indicator: TA1535, Metabolic Activation: NONE, Method: PREINCUBATION) “active; positive”; (Test System: AMES SALMONELLA TYPHIMURIUM, Strain/Indicator: TA1535, Metabolic Activation: RAT, LIVER, S-9, AROCLOR 1254 (30%), Method: PREINCUBATION) “active; positive”.

In the case of `Cc1c2ccccc2cc2c3c(ccc12)C(O)C(O)[C@@H]1O[C@@H]31` (stereo not given in full), the mutagenic call was “active; positive” (Test System: AMES SALMONELLA TYPHIMURIUM, Strain/Indicator: TA98, Metabolic Activation: NONE, Method: PREINCUBATION); “active; positive” under setting [5]; “active; positive” (Test System: CHINESE HAMSTER V-79, Strain/Indicator: V-79/6-THIOGUANINE, Metabolic Activation: NONE).

With `CO[C@@]12[C@H](CO)C3=C(C(=O)C(C)=C(N)C3=O)N1C[C@@H]1N[C@@H]12`, the mutagenic call (Test System: CHINESE HAMSTER V-79, Strain/Indicator: V-79/6-THIOGUANINE, Metabolic Activation: NONE, Method: FLASK ASSAY) was “active; positive”.

On to `Cn1c(C(F)(F)F)cc2c(N3CCCC3)nc(N3CCCC3)nc21`, for which the mutagenic call (Test System: UDS RAT HEPATOCYTES, Strain/Indicator: THY-INCORP, Metabolic Activation: NONE, Method: AUTORADIOGRAPHY) was “inactive; negative”.

With `O=[N+]([O-])c1nc2ccccc2[nH]1`, under setting [1], the mutagenic call is “active; positive”.

As for `CCCCCCCCCCCCCCCCCCCCCCO`, the mutagenic call was “inactive; negative” under setting [1]; “inactive; negative” (Test System: AMES SALMONELLA TYPHIMURIUM, Strain/Indicator: TA98, Metabolic Activation: RAT LIVER S-9, Method: STANDARD PLATE); “inactive; negative” under setting [2]; “inactive; negative” (Test System: AMES SALMONELLA TYPHIMURIUM, Strain/Indicator: TA100, Metabolic Activation: RAT LIVER S-9, Method: STANDARD PLATE); “inactive; negative” under setting [3]; “inactive; negative” (Test System: AMES SALMONELLA TYPHIMURIUM, Strain/Indicator: TA1535, Metabolic Activation: RAT LIVER S-9, Method: STANDARD PLATE). For the same compound, the mutagenic call is, setting by setting: under setting [4], “inactive; negative”; (Test System: AMES SALMONELLA TYPHIMURIUM, Strain/Indicator: TA1537, Metabolic Activation: RAT LIVER S-9, Method: STANDARD PLATE) “inactive; negative”; (Test System: AMES SALMONELLA TYPHIMURIUM, Strain/Indicator: TA1538, Metabolic Activation: NONE, Method: STANDARD PLATE) “inactive; negative”; (Test System: AMES SALMONELLA TYPHIMURIUM, Strain/Indicator: TA1538, Metabolic Activation: RAT LIVER S-9, Method: STANDARD PLATE) “inactive; negative”; (Test System: CHINESE HAMSTER V-79, Strain/Indicator: V-79 (HGPRT)/THIOGUANINE, Metabolic Activation: NONE, Method: STANDARD PLATE) “inactive; negative”; (Test System: CHINESE HAMSTER V-79, Strain/Indicator: V-79 (HGPRT)/THIOGUANINE, Metabolic Activation: RAT LIVER S-9, Method: STANDARD PLATE) “inactive; negative”.
